According to patent US20240226228A1, “ANTIMICROBIAL PEPTOID HAVING IMPROVED SELECTIVITY AND ANTIMICROBIAL COMPOSITION COMPRISING SAME” (priority 2021, published 2024):
≈ marks a conversion by molar mass, not a printed value. Like-named read-outs stand apart in the source and are kept apart here. Where a SMILES comes first, the peptide text is derived from it. [ ]: non-standard residue; d: D form. Gly(N(CH2)2(3-indolyl)) = O=C(O)CNCCc1c[nH]c2ccccc12; Gly(N-CH2CH2-imidazol-4-yl) = O=C(O)CNCCc1c[nH]cn1; Nspe = C[C@H](NCC(=O)O)c1ccccc1; Nlys = NCCCCNCC(=O)O

What was measured:
E. coli ATCC25922 = settings: for antimicrobial activity against E. coli (in words): compared to Peptoid 1; for antimicrobial activity (in words): E. coli and S. aureus, compared to Peptoid 1, parent peptoid or TFA salt as stated
Experimental: To measure the antimicrobial activity of the peptoids synthesized in Example 1, an E. coli ATCC25922 strain as gram-negative bacteria and an S. aureus KCTC25923 strain as gram-positive bacteris, were treated with the peptoids, followed by measuring the minimum inhibitory concentration (MIC). Peptoids 1 and 2 are antimicrobial peptoids known in the art, and used as controls for comparing antimicrobial activity with a novel peptoid.
Specifically, the S. aureus KCTC25923 or E. coli ATCC25922 strain was inoculated into a Mueller Hinton Broth (MHB2) liquid medium in which cations had been adjusted in the medium, cultured at 37° C. for 18 hours, subcultured, and then incubated for 4 hours. Afterward, for each bacterial strain, an optical density (OD, 0.001) was adjusted so that the bacterial count became 2×10^5 to 5×10^5 colony-forming units (CFU) per mL, which was then diluted with a MHB2 liquid medium containing 0.02% bovine serum albumin and 0.001% acetic acid, and dispensed at 100 μL into a 96-well microplate. Using sterile water, a peptoid stock 40 times stronger than a concentration to be tested was subjected to two-fold serial dilution and assessed at six different concentrations, and the maximum value of the peptoid concentrations was 25 μM. Subsequently, the plate was incubated at 37° C. for 24 hours. Afterward, optical density (OD) values at 600 nm were measured using a microplate reader (Bio-Rad).
Each MIC value was determined as the average value of a value obtained through three independent experiments.
Referring to Table 22, to measure the antimicrobial activity of the peptoids synthesized in Example 3, an MIC was measured by treating gram-negative bacteria, that is, the E. coli ATCC25922 strain, and gram-positive bacteria, that is, the S. aureus ATCC25923 strain, with the peptoids. Here, Peptoid 1 is a conventionally known antimicrobial peptoid, and Omiganan is a derivative of indolicidin, which is an antimicrobial peptide, under clinical development, and was used as a control for comparing antimicrobial activity with the novel peptoid.

red blood cells = assay: Hemolysis assay; format: cell-based, Sprague-Dawley mouse
Experimental: To confirm cytotoxicity by the hemolytic activity of each peptoid synthesized in Example 1, hemolysis analysis was performed. The used blood was collected from a 13-week-old male Sprague-Dawley […] in a tube containing 158 UPS sodium heparin for preventing coagulation, and centrifuged at 4° C. for 10 minutes at 1,000 rpm. Afterward, the plasma was carefully removed, red blood cells were washed with phosphate-buffered saline (PBS: a mixed solution of 35 mM phosphate-buffered solution/150 mM NaCl, pH 7.4) three times and centrifuged at 1,000 rpm for 10 minutes. A 10% (v/v) red blood cell solution diluted in PBS was dispensed at 150 μL into a 96-well plate (microtiter plate), a peptoid solution was added at 50 μL, and 1% Triton X-100 was added. Afterward, the red blood cells were incubated at 37° C. for 1 hour, and the incubated 96-well plate was centrifuged at 1,000 rpm for 15 minutes. A supernatant was obtained and transferred to a new 96-well plate at 150 μL, and absorbance was measured using a spectrophotometer at 540 nm. Percent hemolysis may be calculated by the following Equation 1, and the corresponding results are shown in Tables 11 to 13. % Hemolysis=(A−C)/(B−C)×100 [Equation 1] In Equation 1, A is the absorbance of the peptoid solution at 540 nm, B is the absorbance of the 0.1% Triton X-100 at 540 nm, and C is the absorbance of the PBS solution at 540 nm.

| Compound | antimicrobial activity (in words) (E. coli ATCC25922) | cytotoxicity against red blood cells / hemolysis (in words) (red blood cells) | further results |
| --- | --- | --- | --- |
| C[C@@H](c1ccccc1)N(CC(=O)N(CCCCN)CC(=O)N(CC(=O)N(CC(=O)N(CCCCN)CC(=O)N(CC(=O)N(CC(=O)N(CCCCN)CC(=O)N(CC(=O)N(CC(=O)N(CCc1c[nH]c2ccccc12)CC(N)=O)[C@@H](C)c1ccccc1)[C@@H](C)c1ccccc1)[C@@H](C)c1ccccc1)[C@@H](C)c1ccccc1)[C@@H](C)c1ccccc1)[C@@H](C)c1ccccc1)C(=O)CN(C(=O)CN(CCCCN)C(=O)CNCCc1c[nH]c2ccccc12)[C@@H](C)c1ccccc1 [Peptoid 5, H-NhTrp-NLys-Nspe-Nspe-NLys-Nspe-Nspe-NLys-Nspe-Nspe-NLys-Nspe-Nspe-NhTrp-NH2] (H-[Gly(N(CH2)2(3-indolyl))][Nlys][Nspe][Nspe][Nlys][Nspe][Nspe][Nlys][Nspe][Nspe][Nlys][Nspe][Nspe][Gly(N(CH2)2(3-indolyl))]-NH2) | – | – | antimicrobial activity against E. coli (in words) (E. coli ATCC25922): lost antimicrobial activities against E. coli |
| C[C@@H](c1ccccc1)N(CC(N)=O)C(=O)CN(C(=O)CN(CCCCN)C(=O)CN(C(=O)CN(C(=O)CN(CCCCN)C(=O)CN(C(=O)CN(C(=O)CN(CCCCN)C(=O)CN(C(=O)CN(C(=O)CN(CCCCN)C(=O)CN(CCc1c[nH]c2ccccc12)C(=O)CNCCc1c[nH]c2ccccc12)[C@@H](C)c1ccccc1)[C@@H](C)c1ccccc1)[C@@H](C)c1ccccc1)[C@@H](C)c1ccccc1)[C@@H](C)c1ccccc1)[C@@H](C)c1ccccc1)[C@@H](C)c1ccccc1 [Peptoid 6, H-NhTrp-NhTrp-NLys-Nspe-Nspe-NLys-Nspe-Nspe-NLys-Nspe-Nspe-NLys-Nspe-Nspe-NH2] | – | – | antimicrobial activity against E. coli (in words) (E. coli ATCC25922): lost antimicrobial activities against E. coli |
| C[C@@H](c1ccccc1)N(CC(=O)N(CCCCN)CC(=O)N(CC(=O)N(CC(=O)N(CCCCN)CC(=O)N(CCc1c[nH]c2ccccc12)CC(=O)N(CCc1c[nH]c2ccccc12)CC(=O)N(CCCCN)CC(=O)N(CCc1c[nH]c2ccccc12)CC(=O)N(CCc1c[nH]c2ccccc12)CC(N)=O)[C@@H](C)c1ccccc1)[C@@H](C)c1ccccc1)C(=O)CN(C(=O)CNCCCCN)[C@@H](C)c1ccccc1 [Peptoid 19] (H-[Nlys][Nspe][Nspe][Nlys][Nspe][Nspe][Nlys][Gly(N(CH2)2(3-indolyl))][Gly(N(CH2)2(3-indolyl))][Nlys][Gly(N(CH2)2(3-indolyl))][Gly(N(CH2)2(3-indolyl))]-NH2) | – | – | MIC E. coli ATCC25922 (E. coli ATCC25922; Tables 11-13, 24 hours at 37° C., maximum concentration 25 μM): 12.5 µM (≈ 24.7 µg/mL); Hmax (100 μM) (red blood cells): 101.5 ± 1.3%; HC10 (red blood cells; Tables 11-13, concentration that induces hemolysis in 10% red blood cells): 3.8 µM; HC50 (red blood cells; Tables 11-13, concentration that induces hemolysis in 50% red blood cells): 12.5 µM |
| C[C@@H](c1ccccc1)N(CC(=O)N(CCCCN)CC(=O)N(CC(=O)N(CC(=O)N(CCCCN)CC(=O)N(CC(=O)N(CC(=O)N(CCCCN)CC(=O)N(CC(=O)N(CC(=O)N(CCCCN)CC(=O)N(CCCCN)CC(N)=O)[C@@H](C)c1ccccc1)[C@@H](C)c1ccccc1)[C@@H](C)c1ccccc1)[C@@H](C)c1ccccc1)[C@@H](C)c1ccccc1)[C@@H](C)c1ccccc1)C(=O)CNCCc1c[nH]c2ccccc12 [Peptoid 64] (H-[Gly(N(CH2)2(3-indolyl))][Nspe][Nlys][Nspe][Nspe][Nlys][Nspe][Nspe][Nlys][Nspe][Nspe][Nlys][Nlys]-NH2) | – | – | HC10 (red blood cells): 70.7 µM; HC50 (red blood cells): > 100 µM; Hmax (100 μM) (red blood cells): 18.9 ± 2.9% |
| C[C@@H](c1ccccc1)N(CC(N)=O)C(=O)CN(CCCCN)C(=O)CN(CCCCN)C(=O)CN(C(=O)CN(C(=O)CN(CCCCN)C(=O)CN(C(=O)CN(C(=O)CN(CCCCN)C(=O)CN(CCc1c[nH]c2ccccc12)C(=O)CN(CCc1c[nH]c2ccccc12)C(=O)CNCCc1c[nH]cn1)[C@@H](C)c1ccccc1)[C@@H](C)c1ccccc1)[C@@H](C)c1ccccc1)[C@@H](C)c1ccccc1 [Peptoid 72, H-NHis-NhTrp-NhTrp-NLys-Nspe-Nspe-NLys-Nspe-Nspe-NLys-NLys-Nspe-NH2] (H-[Gly(N-CH2CH2-imidazol-4-yl)][Gly(N(CH2)2(3-indolyl))][Gly(N(CH2)2(3-indolyl))][Nlys][Nspe][Nspe][Nlys][Nspe][Nspe][Nlys][Nlys][Nspe]-NH2) | retained antimicrobial activity | improved in toxicity | – |
| C[C@@H](c1ccccc1)N(CC(N)=O)C(=O)CN(CCCCN)C(=O)CN(CCCCN)C(=O)CN(C(=O)CN(C(=O)CN(CCCCN)C(=O)CN(C(=O)CN(C(=O)CN(CCc1c[nH]cn1)C(=O)CN(CCc1c[nH]c2ccccc12)C(=O)CN(CCc1c[nH]c2ccccc12)C(=O)CNCCCCN)[C@@H](C)c1ccccc1)[C@@H](C)c1ccccc1)[C@@H](C)c1ccccc1)[C@@H](C)c1ccccc1 [Peptoid 73, H-NLys-NhTrp-NhTrp-NHis-Nspe-Nspe-NLys-Nspe-Nspe-NLys-NLys-Nspe-NH2] (H-[Nlys][Gly(N(CH2)2(3-indolyl))][Gly(N(CH2)2(3-indolyl))][Gly(N-CH2CH2-imidazol-4-yl)][Nspe][Nspe][Nlys][Nspe][Nspe][Nlys][Nlys][Nspe]-NH2) | retained antimicrobial activity | improved in toxicity | – |
| C[C@@H](c1ccccc1)N(CC(N)=O)C(=O)CN(CCCCN)C(=O)CN(CCCCN)C(=O)CN(C(=O)CN(C(=O)CN(CCc1c[nH]cn1)C(=O)CN(C(=O)CN(C(=O)CN(CCCCN)C(=O)CN(CCc1c[nH]c2ccccc12)C(=O)CN(CCc1c[nH]c2ccccc12)C(=O)CNCCCCN)[C@@H](C)c1ccccc1)[C@@H](C)c1ccccc1)[C@@H](C)c1ccccc1)[C@@H](C)c1ccccc1 [Peptoid 74, H-NLys-NhTrp-NhTrp-NLys-Nspe-Nspe-NHis-Nspe-Nspe-NLys-NLys-Nspe-NH2] (H-[Nlys][Gly(N(CH2)2(3-indolyl))][Gly(N(CH2)2(3-indolyl))][Nlys][Nspe][Nspe][Gly(N-CH2CH2-imidazol-4-yl)][Nspe][Nspe][Nlys][Nlys][Nspe]-NH2) | retained antimicrobial activity | improved in toxicity | – |
| C[C@@H](c1ccccc1)N(CC(N)=O)C(=O)CN(CCc1c[nH]cn1)C(=O)CN(CCCCN)C(=O)CN(C(=O)CN(C(=O)CN(CCCCN)C(=O)CN(C(=O)CN(C(=O)CN(CCCCN)C(=O)CN(CCc1c[nH]c2ccccc12)C(=O)CN(CCc1c[nH]c2ccccc12)C(=O)CNCCCCN)[C@@H](C)c1ccccc1)[C@@H](C)c1ccccc1)[C@@H](C)c1ccccc1)[C@@H](C)c1ccccc1 [Peptoid 76, H-NLys-NhTrp-NhTrp-NLys-Nspe-Nspe-NLys-Nspe-Nspe-NLys-NHis-Nspe-NH2] (H-[Nlys][Gly(N(CH2)2(3-indolyl))][Gly(N(CH2)2(3-indolyl))][Nlys][Nspe][Nspe][Nlys][Nspe][Nspe][Nlys][Gly(N-CH2CH2-imidazol-4-yl)][Nspe]-NH2) | retained antimicrobial activity | improved in toxicity | – |
| C[C@@H](c1ccccc1)N(CC(=O)N(CCc1c[nH]cn1)CC(=O)N(CCc1c[nH]c2ccccc12)CC(=O)N(CCc1c[nH]c2ccccc12)CC(N)=O)C(=O)CN(CCCCN)C(=O)CN(CCCCN)C(=O)CN(C(=O)CN(C(=O)CN(CCCCN)C(=O)CN(C(=O)CN(C(=O)CNCCCCN)[C@@H](C)c1ccccc1)[C@@H](C)c1ccccc1)[C@@H](C)c1ccccc1)[C@@H](C)c1ccccc1 [Peptoid 77, H-NLys-Nspe-Nspe-NLys-Nspe-Nspe-NLys-NLys-Nspe-NHis-NhTrp-NhTrp-NH2] (H-[Nlys][Nspe][Nspe][Nlys][Nspe][Nspe][Nlys][Nlys][Nspe][Gly(N-CH2CH2-imidazol-4-yl)][Gly(N(CH2)2(3-indolyl))][Gly(N(CH2)2(3-indolyl))]-NH2) | reduced antimicrobial activity | improved toxicity | – |
